Key:
Assay type in all cases: cell-based, mouse
[1] = test system: α7 integrin (LacZ reporter in α7+/LacZ myotubes); assay: Myotube α7 integrin FDG assay (Burkin assay in myotubes, 96-well); conditions: myotubes
[2] = test system: β-galactosidase in CMV-LacZ C2C12 myoblasts; assay: CMV-LacZ secondary screen in C2C12 myoblasts (β-Gal stabilizing assay); conditions: CMV-LacZ C2C12 myoblasts
How it was run: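 β-gal stabilization was measured in C2C12 myoblasts or myotubes stably transfected with a CMV-driven LacZ construct, using the FDG β-gal assay. Compounds were tested in dose-response at 0.5, 1, 5, 10, 20 and 40 μM, with two replicates per point.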

[3] = test system: α7 integrin (LacZ reporter in α7βgal+/− myoblasts); assay: Myoblast α7+/LacZ integrin FDG assay (Burkin assay in myoblasts, 96-well); conditions: α7+/LacZ myoblasts, 96-well
[4] = test system: β-galactosidase in CMV-LacZ C2C12 myotubes; assay: CMV-LacZ secondary screen in C2C12 myotubes (β-Gal stabilizing assay); conditions: C2C12 CMV-LacZ myotubes, fold relative to DMSO
How it was run: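 A secondary screen identifies compounds that stabilize β-gal independently of the native promoter, using CMV-LacZ C2C12 cells. Curves span 0.5–40 μM at six levels, in duplicate.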

| SMILES | Burkin Assay in Myotubes, α7 integrin LacZ reporter signal relative to DMSO ([1]; 0.5 uM) | Burkin Assay in Myotubes, α7 integrin LacZ reporter signal relative to DMSO ([1]; 1 uM) | Burkin Assay in Myotubes, α7 integrin LacZ reporter signal relative to DMSO ([1]; 5 uM) | Burkin Assay in Myotubes, α7 integrin LacZ reporter signal relative to DMSO ([1]; 10 uM) | Burkin Assay in Myotubes, α7 integrin LacZ reporter signal relative to DMSO ([1]; 20 uM) | Burkin Assay in Myotubes, α7 integrin LacZ reporter signal relative to DMSO ([1]; 40 uM) | CMV-LACZ in Myoblasts (β-galactosidase activity relative to DMSO) ([2]; 0.5 uM) | CMV-LACZ in Myoblasts (β-galactosidase activity relative to DMSO) ([2]; 1 uM) | CMV-LACZ in Myoblasts (β-galactosidase activity relative to DMSO) ([2]; 5 uM) | CMV-LACZ in Myoblasts (β-galactosidase activity relative to DMSO) ([2]; 10 uM) | CMV-LACZ in Myoblasts (β-galactosidase activity relative to DMSO) ([2]; 20 uM) | CMV-LACZ in Myoblasts (β-galactosidase activity relative to DMSO) ([2]; 40 uM) | Burkin Assay in Myoblasts, signal relative to DMSO ([3]; 0.5 uM) | Burkin Assay in Myoblasts, signal relative to DMSO ([3]; 1 uM) | Burkin Assay in Myoblasts, signal relative to DMSO ([3]; 5 uM) | Burkin Assay in Myoblasts, signal relative to DMSO ([3]; 10 uM) | Burkin Assay in Myoblasts, signal relative to DMSO ([3]; 20 uM) | Burkin Assay in Myoblasts, signal relative to DMSO ([3]; 40 uM) | CMV-LACZ in Myotubes, signal relative to DMSO ([4]; 0.5 uM) | CMV-LACZ in Myotubes, signal relative to DMSO ([4]; 1 uM) | other results |
| --- | --- | --- | --- | --- | --- | --- | --- | --- | --- | --- | --- | --- | --- | --- | --- | --- | --- | --- | --- | --- | --- |
| CN(/C(=N/S(=O)(=O)c1cccs1)c1ccccc1)c1ccccc1 [MLS000582947-01] | 0.9003 | 1.155 | 1.02 | 0.9759 | 1.102 | 0.791 | 0.9691 | 0.8991 | 1.1273 | 1.0067 | 0.7811 | 0.8819 | 1.236 | 0.9632 | 0.943 | 0.9807 | 0.9417 | 0.7737 | 0.8848 | 0.9610 | CMV-LACZ in Myotubes, signal relative to DMSO ([4]; 5 uM): 0.9280; CMV-LACZ in Myotubes, signal relative to DMSO ([4]; 10 uM): 0.9127; CMV-LACZ in Myotubes, signal relative to DMSO ([4]; 20 uM): 1.0729; CMV-LACZ in Myotubes, signal relative to DMSO ([4]; 40 uM): 1.0247 |
| CC1CC(C)(C)NC(=S)N1CC(=O)N(C)Cc1ccccc1 (stereo not drawn) [MLS000586245-01] | 1.003 | 0.9584 | 1.043 | 1.179 | 0.9426 | 1.026 | 0.9034 | 0.8985 | 0.9258 | 1.0505 | 0.7726 | 0.7674 | 0.9903 | 1.049 | 1.116 | 1.244 | 1.033 | 1.021 | 1.0611 | 1.0800 | CMV-LACZ in Myotubes, signal relative to DMSO ([4]; 5 uM): 0.9511; CMV-LACZ in Myotubes, signal relative to DMSO ([4]; 10 uM): 1.1338; CMV-LACZ in Myotubes, signal relative to DMSO ([4]; 20 uM): 1.2267; CMV-LACZ in Myotubes, signal relative to DMSO ([4]; 40 uM): 1.2656 |
| Cc1ccc(N2C(=O)C3NN=C(C(=O)OCc4ccccc4)C3C2=O)cc1 (stereo not drawn) [MLS000588210-01] | 0.9425 | 0.9559 | 0.9466 | 0.9155 | 0.9763 | 0.9565 | 1.2908 | 0.9782 | 0.7808 | 0.9316 | 1.0307 | 0.9000 | 1.055 | 0.9707 | 0.9002 | 0.9816 | 1.136 | 0.9611 | 1.1263 | 1.0853 | CMV-LACZ in Myotubes, signal relative to DMSO ([4]; 5 uM): 0.9182; CMV-LACZ in Myotubes, signal relative to DMSO ([4]; 10 uM): 1.0815; CMV-LACZ in Myotubes, signal relative to DMSO ([4]; 20 uM): 1.1322; CMV-LACZ in Myotubes, signal relative to DMSO ([4]; 40 uM): 1.1656 |
